Values quoted from earlier work in patent US8193201B2, “Synergistic anti-inflammatory pharmaceutical compositions and related methods using curcuminoids or methylxanthines” (priority 2004, dated 2012).

Tested on: PGE2
Conditions: value reported in the literature (Fiebich et al.)

## Cn1c(=O)c2c(ncn2C)n(C)c1=O [Caffeine, caffeine]
  median PGE2 inhibitory concentration: 8.2 µg/mL
